Tests used:
[1] = tested on: double DNMT knockout (DKO) HCT116 cells; assay: MTT proliferation assay DKO HCT116; format: cell-based, human; conditions: 24 and 48 h; MC3353 at 0.5 μM after 48 h; DAC, 5-AZA up to highest dose
Experimental: DKO HCT116 (ATCC, VA, USA) cells were propagated in Dulbecco’s modified Eagle medium (DMEM) (Euroclone, Milan, Italy) with 10% fetal bovine serum (FBS; Euroclone, Milan, Italy), 2 mM L-glutamine (Euroclone, Milan, Italy) and antibiotics (100 U/mL penicillin, 100 µg/mL streptomycin) (Euroclone, Milan, Italy).
The MTT [3-(4,5-dimethylthiazol-2-yl)-2,5-diphenyltetrazolium bromide] (Sigma-Aldrich, Milan, Italy) assay was used to determine the proliferation of HCT116 clone and DKO HCT116 cells after treatment with MC3353, 5-AZA, and DAC. 5 × 10^4 cells/well for both cell lines were plated in 24-well plate and treated, in duplicate, with compounds at several concentrations for 24 and 48 h of induction. After treatments, MTT solution was added for 3 h at 0.5 mg/mL, the purple formazan crystals were dissolved in DMSO (Sigma-Aldrich, Milan, Italy), and the absorbance was read at a wavelength of 570 nm with reader TECAN M-200.

[2] = tested on: IOR/OS20; assay: Osteosarcoma cell growth inhibition (trypan blue count); format: cell-based; conditions: Homo sapiens; 96 h of treatment; read-out: IC50 ± SD, cellular viability, IOR/OS20
From the text: (§1) The patient-derived human OS cell lines Saos-2, U-2OS, and MG-63 were obtained from ATCC (1992). The patient-derived OS cell lines IOR/OS9, IOR/OS20, and IOR/SARG were established and previously characterized at the Laboratory of Experimental Oncology of Rizzoli Orthopedic Institute. Cell lines were profiled for DNA copy number changes and DNA methylation status at approximately 27,000 CpG sites. The cell line PDX-OS#1-C4 was obtained from OS patient-derived xenograft (PDX) after 4 passages in the animal. All cell lines were tested for mycoplasma contamination (Mycoalert Mycoplasma Detection Kit, Lonza, Verviers, Belgium) before use and authenticated by short-tandem repeat polymerase chain reaction (STR PCR) analysis (last control December 2017) using PowerPlex ESX fast System kit (Promega, Madison, WI, USA). The following loci were verified: AMEL, D3S1358, TH01, D21S11, D18S51, D10S1248, D1S1656, D2S1338, D16S539, D22S1054, VWA, D8S1179, FGA, D2S441, D12S391, D19S433, and SE33. All cell lines were immediately amplified to constitute liquid nitrogen stocks and were never passaged for more than 1 month upon thawing. Cells were maintained in Iscove’s modified Dulbecco’s medium (IMDM) supplemented with 10% heat-inactivated FBS (Lonza, Verviers, Belgium), penicillin (20 U/mL), and streptomycin (100 μg/mL) (Sigma-Aldrich, Milan, Italy) in 37 °C humidified at 5% CO2.
(§2) To perform osteosarcoma cell growth inhibition experiments, 2 × 10^5 cells/well were plated, and MC3353 (0.1–30 μM) or DAC (0.5 μM) was added after 24 h. Cells were exposed for up to 96 h before being counted by Trypan blue vital cell count (Sigma-Aldrich, Milan, Italy). In parallel, the cells were treated with DMSO-containing medium as a control. The highest final concentration of DMSO in the medium was < 0.005%, and DMSO had no effect on cell growth.
(§3) IC50 values of compounds against cellular viability were determined by using nonlinear regression fitting curves with GraphPad Prism 8 or CalcuSyn software The t test used for statistical analyses was performed with GraphPad Prism 8. All the tests were one-tailed, and a p value < 0.05 was considered statistically significant.

[3] = tested on: IOR/OS9; assay: as above; format: cell-based; conditions: Homo sapiens; 96 h of treatment; read-out: IC50 ± SD, cellular viability, IOR/OS9
From the text: as §1, §2, §3

[4] = tested on: IOR/SARG; assay: as above; format: cell-based; conditions: Homo sapiens; 96 h of treatment; read-out: IC50 ± SD, cellular viability, IOR/SARG
From the text: as §1, §2, §3

[5] = tested on: MG63; assay: as above; format: cell-based; conditions: Homo sapiens, MG-63; 96 h of treatment; read-out: IC50 ± SD, cellular viability, MG63
From the text: as §1, §2, §3

[6] = tested on: PDX-OS#1-C4; assay: as above; format: cell-based; conditions: Homo sapiens; 96 h of treatment; read-out: IC50 ± SD, cellular viability, PDX-OS#1-C4
From the text: as §1, §2, §3

[7] = tested on: Saos-2; assay: as above; format: cell-based; conditions: Homo sapiens, 96 h of treatment, read-out: IC50 ± SD, cellular viability, Saos-2
From the text: as §1, §2, §3

[8] = tested on: U-2OS; assay: as above; format: cell-based; conditions: Homo sapiens, U2OS; 96 h of treatment; read-out: IC50 ± SD, cellular viability, U-2OS
From the text: as §1, §2, §3

[9] = tested on: MMP2 mRNA in HCT116 cells; assay: qPCR of MMP2 in HCT116; format: cell-based, human; conditions: MC3353 0.1 and 1 μM 24 h; 5-AZA, DAC 5 days, also at 0.1 to 1 μM
From the text: RNAs were extracted by ReliaPrep™ RNA Tissue Miniprep (Promega, Madison, WI, USA) and reverse transcribed with PrimeScript RT Master Mix (Takara, Kusatsu, Shiga, Japan). cDNAs were amplified by a qPCR reaction using GoTaq qPCR Master Mix (Promega) and analyzed with the oligonucleotide pairs specific for the target genes. Relative amounts, determined with the 2^(−ΔCt) method, were normalized with respect to the human housekeeping gene L32. The primers used are as follows: L32 (forward: 5′-[…]-3′, reverse: 5′-[…]-3′), E-cadherin (forward: 5′-[…]-3′, reverse: 5′-[…]-3′), and MMP2 (forward: 5′-[…]-3′, reverse: 5′-[…]-3′).
Prompted by these findings, we investigated the ability of MC3353 to modulate EMT pathway, using 5-AZA and DAC as reference drugs. […] The levels of mRNA transcripts of E-cadherin and matrix metalloproteinase-2 (MMP2) were determined. E-cadherin is involved in the maintenance of the epithelial identity and in the control of tumor invasiveness, whereas MMP2, through degradation of type IV collagen, the most abundant component of the basement membrane, controls an essential step for metastatic progression of most cancers as well as for induction of angiogenesis.

SMILES | effect on DKO HCT116 proliferation (MTT) [1] | IC50 [2] [nM] | IC50 [3] [nM] | IC50 [4] [nM] | IC50 [5] [nM] | IC50 [6] [nM] | IC50 [7] [nM] | IC50 [8] [nM] | MMP2 mRNA expression, HCT116 [9]
Nc1ncn([C@H]2C[C@H](O)[C@@H](CO)O2)c(=O)n1 [DAC, 5-aza-2′-deoxycytidine, reference compound] | No evidence of cytotoxicity | 9200 ± 2200 | 5700 ± 3400 | 5400 ± 1000 | 200 ± 200 | 700 ± 600 | 1000 ± 900 | 1100 ± 900 | increased MMP2 level
O=C(Nc1ccc(NC(=O)c2ccc(Nc3ccnc4ccccc34)cc2)cc1)OCc1ccccc1 [MC3353, Benzyl (4-(4-(quinolin-4-ylamino)benzamido)phenyl)carbamate] | markedly less efficient to impair cell proliferation | 1500 ± 100 | 2000 ± 100 | 1500 ± 100 | 2400 ± 1700 | 2000 ± 100 | 1100 ± 300 | 1400 ± 100 | strongly downregulated

Source: paper PMC6501426 (Clinical Epigenetics, 2019)
